Assay results as given in patent publication US10806164B2 (priority 2016, dated 2020).
Marks after values point to notes of the source that are not given here.

Experiments:
[1] = rat, in vivo
[2] = rat, in vivo; remark: listed apart in the source

Deoxynivalenol [DON]
Consumption food Means ± Standard error [1]: 511 ± 5.71 ^b | Effect on consumption of food [2]: affected the consumption of food | Food consumption Means ± standard error [2]: 569 ± 19.1 ^b | Food consumption from 0 to 7 days [2]: 98 ± 4.75 ^a | Food consumption from 7 to 14 days [2]: 109 ± 4.84 ^a | Food consumption from 14 to 21 days [2]: 109 ± 5.41 ^b | Food consumption from 21 to 28 days [2]: 121 ± 4.83 ^b | Food consumption from 28 to 35 days [2]: 132 ± 3.10 ^b | Food conversion Means ± standard error [2]: 5.22 ± 0.195 ^b | Gain of weight from 0 to 7 days [2]: 24 ± 2.45 ^b | Gain of weight from 7 to 14 days [2]: 24 ± 3.04 ^a | Gain of weight from 14 to 21 days [2]: 21 ± 2.92 ^a | Gain of weight from 21 to 28 days [2]: 13 ± 3.89 ^b | Gain of weight from 28 to 35 days [2]: 27 ± 3.63 ^a | Weight gain Means ± standard error [2]: 109 ± 6.61 ^b g
